According to patent US9399123B2, “Silicone adhesive compositions” (Momentive Performance Materials Inc., priority 2012, dated 2016):

Experiment: DSC of drug crystals in adhesive (heat of melting, solid drug fraction)
Format: physicochemical
Protocol: To further study the interaction, the drug containing samples were analyzed via DSC using a TA Instruments Differential Scanning Calorimeter. The ionic silicone and PDMS-based samples containing ibuprofen, as well as pure drug were heated from room temperature to 200° C. at a rate of 5° C./min. The drug melting point, Tm was identified at 77° C. […] This evidence of differential interactions could explain the difference in ibuprofen release through these systems (FIGS. 5(b) and (c)).
The difference in drug compatibility with the ionic silicone adhesive vis-á-vis the PDMS adhesive was determined via DSC as described in Example 12 above. The free drug, and drug loaded PDMS and ionic silicone adhesive were subjected to a heating and cooling cycle under air atmosphere. The DSC thermograms are show in FIG. 9(b).
To quantify the result and the difference in compatibility, the areas were calculated as normalized heat of melting of drug crystals present in the formulation. The values were attributed to the solid fraction of distinct drug crystals present in the formulation, and the following results were obtained: […]

## C[C@]12CC[C@H]3[C@@H](CCC4=CC(=O)CC[C@@]43C)[C@@H]1CC[C@@H]2O [Testosterone]
DSC, normalized heat of melting of drug crystals
  Heat of Melting: 73 J/gm
From heat of melting relative to free testosterone (100% assigned)
  % Solid drug fraction: 100%
